This passage reports GI50 and TGI results from PubChem BioAssay (NCI).

Holding throughout (assay): NCI-60 cell line screen, 48 h
Assay [1] concerns OVCAR-5 ovarian.
The subject of assay [2] is SK-MEL-28 melanoma.
The test system of assay [3] is SR leukemia.
For assay [4], the system named is IGROV1 ovarian.
Assay [5] has as its system RXF 393 renal.
The subject of assay [6] is CCRF-CEM leukemia.
Assay [7] relates to SK-MEL-2 melanoma.
Assay [8] concerns SNB-75 CNS.
Assay [9] relates to MALME-3M melanoma.
Assay [10] relates to ACHN renal.

Each structure is given as a SMILES string.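 Dose response: 5 concentrations. Exposure: 48 h. Format: 96-well plates. Endpoint: linear interpolation; highest concentration if not reached. Here, GI50 denotes the concentration required for 50% inhibition of growth. At the TGI there is no net growth.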

With `S=C(Nc1ccc(-c2nc3ccccc3[nH]2)cc1)NC1CCCCC1`, the GI50 in assay [1] is 42.4 µM; in assay [2], 30.6 µM; in assay [3], 10.9 µM; in assay [4], 35.2 µM; in [5], 15.5 µM; in [6], 36.8 µM. Besides, the GI50 was 36.5 µM in assay [7], 25.1 µM in [8] and 18.1 µM in assay [10]. For the same molecule, the TGI was 52.5 µM in [3]; 74 µM in assay [5]; over 100 µM in [8]; 51.9 µM in [9]; 42.2 µM in [10].
For the molecule `CCCCCCC/C=C/[C@H]1O[C@]23C(=O)C[C@@]4(C[C@@H](OC5OC(CO)C(O)C(O)C5O)C[C@@H]4[C@H]2C=C1C)OC3=O` (some centres undefined), the GI50 in assay [1] is 6.06 µM; in assay [2], 5.05 µM; in assay [3], 1.35 µM; in assay [4], 5.67 µM; in assay [5], 4.41 µM; in [6], 1.19 µM. Also, the GI50 was 5.33 µM in assay [7], 2.84 µM in [8], 4.82 µM in assay [9] and 4.31 µM in assay [10]. Moreover, the TGI in assay [1] was 14.7 µM; in assay [2], 10.3 µM; in [3], 13.6 µM; in assay [4], 26.7 µM; in [5] it was 9.15 µM; in assay [6], over 33.3 µM. For the same molecule, the TGI in assay [7] was determined as 15.1 µM; in [8] it was 7.17 µM; in assay [9] it was 9.87 µM; in assay [10] it was 8.65 µM.
Take `COc1cc(-c2cnn(C)c2)ccc1Nc1ncc2ccnc(N[C@@H](C)C(C)(C)C)c2n1`: the GI50 was 97.8 µM in [1]; over 100 µM in [2]; 0.695 µM in [3]; over 100 µM in assay [4]; 8.98 µM in [5]; over 100 µM in assay [6]. Also, the GI50 in [7] was over 100 µM; in assay [8], 3.26 µM; in [9], over 66 µM; in assay [10] it was 4.29 µM. The TGI in [1], in assay [2], in [3], in [4], in [5] and in assay [6] was over 100 µM in each case. In addition, the TGI in [7], in assay [8], in assay [9] and in assay [10] was over 100 µM in each case.
As to `O=C(C(O)c1cn(Cc2ccccc2)c2ccccc12)N1CCCCC1` (centres undefined), the TGI was over 100 µM in assay [1]; over 10 µM in [2]; over 100 µM in assay [3]; over 100 µM in assay [4]; over 10 µM in assay [5]; over 100 µM in assay [6]. Moreover, the TGI in assay [7], in [8], in [9] and in assay [10] was over 100 µM each time.
For `C=CCCCCCCCCCCCC1CCC(CC)N1` (centres undefined), the TGI in assay [1] turned out to be 22.6 µM; in [2] it was 29.6 µM; in assay [3], 7.12 µM; in assay [4], 25.9 µM; in [5], 16.5 µM; in assay [6], 29 µM. In addition, the TGI in assay [7] came out at 29.5 µM; in assay [8] it was 33.9 µM; in assay [9], 31.4 µM; in assay [10] it was 31.1 µM.
In the case of `CCOc1ccc(/C=C/C(=O)c2ccccc2)cc1`, the GI50 in assay [1] is 19.3 µM; in [2] it was 19.8 µM; in [3], 8.5 µM; in [4], 16.3 µM; in assay [5] it was 15.2 µM; in assay [6] it was 17.9 µM. The GI50 is 20.4 µM in assay [7], 22.4 µM in [8], 17.9 µM in assay [9] and 18.1 µM in assay [10]. Also, the TGI came out at 47.1 µM in assay [1]; 39.6 µM in assay [2]; 43.5 µM in assay [3]; 39.7 µM in assay [4]; 29.2 µM in [5]; 62.4 µM in assay [6]. Moreover, the TGI in assay [7] is 38.2 µM; in assay [8] it was 51.4 µM; in assay [9], 35.2 µM; in assay [10], 34.9 µM.
Turning to `Nc1c(C(=O)c2ccccc2)sc2nc(-c3cccs3)ccc12`, the GI50 in [1] was 1.8 µM; in assay [2], 1.49 µM; in assay [3], 0.0668 µM; in [4], 1.21 µM; in assay [5], 0.317 µM; in assay [6], 0.524 µM. Further, the GI50 in [7] was 0.252 µM; in assay [8] it was 0.187 µM; in assay [9] it was 1.19 µM; in assay [10], 0.863 µM. Besides, the TGI in assay [1] is 14.5 µM; in assay [2], over 100 µM; in assay [3], 4.16 µM; in assay [4], 18.8 µM; in assay [5], 1.63 µM; in [6], over 100 µM. The TGI in assay [7] worked out at 17.8 µM; in [8], 1.42 µM; in [9], 12.6 µM; in [10], 13.3 µM.
In the case of `Cc1ccc(C(=O)c2oc3ccc4c(C)cc(=O)oc4c3c2C)cc1`, the GI50 in assay [1] is 11.2 µM; in assay [2] it was 6.37 µM; in assay [3] it was 25.1 µM; in assay [4], 13.8 µM; in [5], 13.8 µM; in assay [6], over 100 µM. In addition, the GI50 is 35 µM in [7], 4.19 µM in assay [8], 25.7 µM in assay [9] and 3.65 µM in [10]. The TGI in [1] was over 100 µM; in assay [2], over 100 µM; in assay [3], over 100 µM; in assay [4], over 100 µM; in assay [5], 91 µM; in [6] it was over 100 µM. The TGI is over 100 µM in [7], 39.4 µM in [8], over 100 µM in assay [9] and 94.3 µM in assay [10].
`CC[N+](CCCCCCCCCC[N+](CC)(c1ccccn1)c1ccccn1)(c1ccccn1)c1ccccn1`: the GI50 in [1] was 1.86 µM; in assay [2], 2.48 µM; in [3] it was 1.36 µM; in assay [4], 2.07 µM; in assay [5] it was 2.5 µM; in assay [6], 1.05 µM. Further, the GI50 in assay [7] was 1.88 µM; in [8], 1.25 µM; in [9], 1.52 µM; in assay [10], 2.8 µM. In addition, the TGI in [1] was 9.65 µM; in assay [2] it was 15.2 µM; in assay [3], 22.1 µM; in assay [4], 11.7 µM; in [5], 21.2 µM; in assay [6], 8.78 µM. In addition, the TGI in assay [7] amounted to 5.82 µM; in assay [8], 32.2 µM; in assay [9] it was 17.7 µM; in [10], 12.9 µM.
